From patent US12685735B2 (Foghorn Therapeutics Inc., priority 2020, dated 2026)

Assays:
[1] = target: BRM (Homo sapiens, UniProt P51531); test: ATPase catalytic activity assay of BRM (ADP-Glo); format: biochemical; details: for IC50: read-out: BRM IC50 (μM)*
How it was run: (§1)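 Measurement is luminescence, reflecting ADP produced by ATPase turnover. The two-step ADP-Glo detection consists of ATP depletion for 40 min and ADP-to-ATP conversion with luciferase for 60 min, both at room temperature.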

[2] = target: BRG-1 (Homo sapiens, UniProt P51532); test: ATPase catalytic activity assay of BRG-1 (ADP-Glo); format: biochemical; details: ATPase catalytic activity, ADP-Glo; for IC50: read-out: BRG1 IC50 (μM)*; for Emax: read-out: BRG1 Max % Inhibition
Sequence of BRG-1 (P51532 whole entry): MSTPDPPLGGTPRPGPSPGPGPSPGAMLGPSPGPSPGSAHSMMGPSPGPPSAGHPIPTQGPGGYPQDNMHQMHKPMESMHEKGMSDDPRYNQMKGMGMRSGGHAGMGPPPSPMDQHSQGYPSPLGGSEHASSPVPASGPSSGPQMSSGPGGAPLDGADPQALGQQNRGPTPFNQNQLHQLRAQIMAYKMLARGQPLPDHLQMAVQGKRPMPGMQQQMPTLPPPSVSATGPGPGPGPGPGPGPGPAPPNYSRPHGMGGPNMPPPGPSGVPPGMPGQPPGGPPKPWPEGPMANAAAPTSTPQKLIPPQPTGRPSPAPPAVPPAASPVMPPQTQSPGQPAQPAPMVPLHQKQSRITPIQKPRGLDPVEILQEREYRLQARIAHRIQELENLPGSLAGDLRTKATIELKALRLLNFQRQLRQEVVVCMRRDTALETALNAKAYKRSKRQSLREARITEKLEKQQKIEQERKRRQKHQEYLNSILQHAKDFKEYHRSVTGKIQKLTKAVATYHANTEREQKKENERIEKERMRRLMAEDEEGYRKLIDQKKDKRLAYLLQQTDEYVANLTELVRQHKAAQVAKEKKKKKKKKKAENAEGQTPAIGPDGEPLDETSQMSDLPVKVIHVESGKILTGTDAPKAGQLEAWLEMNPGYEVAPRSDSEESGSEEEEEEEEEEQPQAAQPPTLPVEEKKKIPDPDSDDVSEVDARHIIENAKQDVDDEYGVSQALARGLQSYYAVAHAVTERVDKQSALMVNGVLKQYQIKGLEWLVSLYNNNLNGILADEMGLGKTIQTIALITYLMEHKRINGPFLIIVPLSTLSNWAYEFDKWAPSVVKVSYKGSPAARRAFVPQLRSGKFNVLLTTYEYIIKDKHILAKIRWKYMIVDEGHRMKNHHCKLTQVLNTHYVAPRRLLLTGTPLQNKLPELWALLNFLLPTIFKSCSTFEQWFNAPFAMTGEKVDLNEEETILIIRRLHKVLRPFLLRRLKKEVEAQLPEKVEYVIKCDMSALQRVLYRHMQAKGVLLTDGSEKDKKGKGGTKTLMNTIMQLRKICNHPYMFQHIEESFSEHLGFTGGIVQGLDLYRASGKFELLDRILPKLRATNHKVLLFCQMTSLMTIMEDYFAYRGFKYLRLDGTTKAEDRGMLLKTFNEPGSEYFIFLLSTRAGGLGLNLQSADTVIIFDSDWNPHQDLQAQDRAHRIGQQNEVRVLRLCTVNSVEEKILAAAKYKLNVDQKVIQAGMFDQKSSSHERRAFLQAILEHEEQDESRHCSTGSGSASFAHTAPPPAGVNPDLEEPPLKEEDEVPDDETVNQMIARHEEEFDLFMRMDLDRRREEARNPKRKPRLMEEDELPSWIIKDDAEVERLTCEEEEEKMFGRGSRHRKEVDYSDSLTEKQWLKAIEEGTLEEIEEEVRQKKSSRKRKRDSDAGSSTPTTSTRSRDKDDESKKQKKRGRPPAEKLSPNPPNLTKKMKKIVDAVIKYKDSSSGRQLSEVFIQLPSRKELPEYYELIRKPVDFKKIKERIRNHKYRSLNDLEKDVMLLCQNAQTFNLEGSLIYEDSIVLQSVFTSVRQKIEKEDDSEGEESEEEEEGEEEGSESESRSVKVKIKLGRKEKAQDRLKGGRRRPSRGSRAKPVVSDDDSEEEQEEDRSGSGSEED
How it was run: as §1

Sequence of BRM (P51531 whole entry): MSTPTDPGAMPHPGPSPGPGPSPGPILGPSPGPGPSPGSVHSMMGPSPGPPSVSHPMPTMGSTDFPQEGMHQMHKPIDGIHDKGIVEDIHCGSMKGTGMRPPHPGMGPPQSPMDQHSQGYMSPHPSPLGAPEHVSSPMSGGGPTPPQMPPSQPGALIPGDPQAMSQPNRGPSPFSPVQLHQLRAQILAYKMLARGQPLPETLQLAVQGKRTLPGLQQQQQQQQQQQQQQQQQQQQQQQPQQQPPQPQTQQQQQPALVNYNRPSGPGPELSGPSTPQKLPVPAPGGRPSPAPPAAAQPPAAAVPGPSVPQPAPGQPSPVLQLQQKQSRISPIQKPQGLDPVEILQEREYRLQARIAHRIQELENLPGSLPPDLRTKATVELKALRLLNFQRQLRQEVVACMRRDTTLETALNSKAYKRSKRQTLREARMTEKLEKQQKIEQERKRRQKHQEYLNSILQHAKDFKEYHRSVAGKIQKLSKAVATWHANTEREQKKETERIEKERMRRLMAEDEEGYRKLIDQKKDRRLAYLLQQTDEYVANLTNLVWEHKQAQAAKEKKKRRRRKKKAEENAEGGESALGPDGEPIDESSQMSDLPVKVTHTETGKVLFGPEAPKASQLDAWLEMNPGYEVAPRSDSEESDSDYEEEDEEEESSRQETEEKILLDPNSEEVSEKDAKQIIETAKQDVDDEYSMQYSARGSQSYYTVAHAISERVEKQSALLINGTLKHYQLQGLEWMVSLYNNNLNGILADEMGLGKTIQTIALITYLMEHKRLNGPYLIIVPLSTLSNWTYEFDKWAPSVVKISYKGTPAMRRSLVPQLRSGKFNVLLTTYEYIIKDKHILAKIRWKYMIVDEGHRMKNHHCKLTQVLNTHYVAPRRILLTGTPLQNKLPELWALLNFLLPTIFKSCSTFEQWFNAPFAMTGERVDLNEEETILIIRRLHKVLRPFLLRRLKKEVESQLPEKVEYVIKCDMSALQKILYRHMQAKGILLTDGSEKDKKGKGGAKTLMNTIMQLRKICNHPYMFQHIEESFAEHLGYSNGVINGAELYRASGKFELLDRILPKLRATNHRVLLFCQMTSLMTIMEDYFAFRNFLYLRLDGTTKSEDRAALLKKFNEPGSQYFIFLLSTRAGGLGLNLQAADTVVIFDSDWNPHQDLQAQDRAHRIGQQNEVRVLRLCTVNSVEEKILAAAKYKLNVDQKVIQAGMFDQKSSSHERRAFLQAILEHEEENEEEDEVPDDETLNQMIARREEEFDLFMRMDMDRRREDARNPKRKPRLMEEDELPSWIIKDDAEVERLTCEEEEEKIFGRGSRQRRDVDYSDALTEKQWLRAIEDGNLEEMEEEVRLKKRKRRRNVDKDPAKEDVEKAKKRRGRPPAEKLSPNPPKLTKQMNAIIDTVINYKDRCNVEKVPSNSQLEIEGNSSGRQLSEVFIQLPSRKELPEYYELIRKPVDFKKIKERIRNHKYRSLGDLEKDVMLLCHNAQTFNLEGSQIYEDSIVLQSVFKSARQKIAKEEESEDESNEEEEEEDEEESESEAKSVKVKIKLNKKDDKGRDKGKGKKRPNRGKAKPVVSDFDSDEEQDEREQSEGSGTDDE

SMILES | BRM Max % Inhibition [1] | IC50 [1] | IC50 [2] | Emax [2]
C[C@@H]1CN(c2cccc(-c3csc(NC(=O)CNC(=O)c4cccc(C5(CO)COC5)c4)n3)c2)C[C@H](C)O1 [Compound 168, N-(2-((4-(3-((cis)-2,6-dimethylmorpholino)phenyl)thiazol-2-yl)amino)-2-oxoethyl)-3-(3-(hydroxymethyl)oxetan-3-yl)benzamide] | >90% | 0.1 to 1 µM | > 5 µM | > 50%
C[C@]1(CO)CCc2ccc(C(=O)NCC(=O)Nc3nc(-c4cccc(-c5cnccn5)n4)cs3)cc21 [Compound 169, (S)-3-(hydroxymethyl)-3-methyl-N-(2-oxo-2-((4-(6-(pyrazin-2-yl)pyridin-2-yl)thiazol-2-yl)amino)ethyl)-2,3-dihydro-1H-indene-5-carboxamide] | >80% | 0.1 to 1 µM | > 5 µM | > 50%
C[C@@H]1CN(c2cccc(-c3csc(NC(=O)CNC(=O)c4ccc5c(c4)[C@@](C)(C#N)COC5)n3)c2)C[C@H](C)O1 [Compound 171, (S)-4-cyano-N-(2-((4-(3-((cis)-2,6-dimethylmorpholino)phenyl)thiazol-2-yl)amino)-2-oxoethyl)-4-methylisochroman-6-carboxamide] | >80% | 0.1 to 1 µM | 1 to 5 µM | > 70%
CN1CCOc2ccc(-c3csc(NC(=O)CNC(=O)c4ccc5c(c4)[C@](C)(CO)CC5)n3)cc21 [Compound 173, (R)-3-(hydroxymethyl)-3-methyl-N-(2-((4-(4-methyl-3,4-dihydro-2H-benzo[b][1,4]oxazin-6-yl)thiazol-2-yl)amino)-2-oxoethyl)-2,3-dihydro-1H-indene-5-carboxamide] | >95% | 0.1 to 1 µM | 0.1 to 1 µM | > 80%
CN1CCOc2ccc(-c3csc(NC(=O)CNC(=O)c4ccc5c(c4)[C@@](C)(CO)CC5)n3)cc21 [Compound 174, (S)-3-(hydroxymethyl)-3-methyl-N-(2-((4-(4-methyl-3,4-dihydro-2H-benzo[b][1,4]oxazin-6-yl)thiazol-2-yl)amino)-2-oxoethyl)-2,3-dihydro-1H-indene-5-carboxamide] | >80% | 0.1 to 1 µM | 1 to 5 µM | > 50%
Cn1cnc2ccc(-c3csc(NC(=O)CNC(=O)c4ccc5c(c4)[C@](C)(CO)CC5)n3)cc21 [Compound 175, (R)-3-(hydroxymethyl)-3-methyl-N-(2-((4-(1-methyl-1H-benzo[d]imidazol-6-yl)thiazol-2-yl)amino)-2-oxoethyl)-2,3-dihydro-1H-indene-5-carboxamide] | >90% | 0.1 to 1 µM | 1 to 5 µM | > 60%
Cn1ncc2ccc(-c3csc(NC(=O)CNC(=O)c4ccc5c(c4)[C@](C)(CO)CC5)n3)cc21 [Compound 179, (R)-3-(hydroxymethyl)-3-methyl-N-(2-((4-(1-methyl-1H-indazol-6-yl)thiazol-2-yl)amino)-2-oxoethyl)-2,3-dihydro-1H-indene-5-carboxamide] | >80% | 0.1 to 1 µM | > 5 µM | > 50%
CN1C(=O)CCc2ccc(-c3csc(NC(=O)CNC(=O)c4ccc5c(c4)[C@](C)(CO)CC5)n3)cc21 [Compound 180, (R)-3-(hydroxymethyl)-3-methyl-N-(2-((4-(1-methyl-2-oxo-1,2,3,4-tetrahydroquinolin-7-yl)thiazol-2-yl)amino)-2-oxoethyl)-2,3-dihydro-1H-indene-5-carboxamide] | >90% | 0.1 to 1 µM | 1 to 5 µM | > 60%
Cn1ccc2ccc(-c3csc(NC(=O)CNC(=O)c4ccc5c(c4)[C@@](C)(CO)CC5)n3)cc2c1=O [Compound 181, (S)-3-(hydroxymethyl)-3-methyl-N-(2-((4-(2-methyl-1-oxo-1,2-dihydroisoquinolin-7-yl)thiazol-2-yl)amino)-2-oxoethyl)-2,3-dihydro-1H-indene-5-carboxamide] | >90% | 0.1 to 1 µM | 1 to 5 µM | > 70%

Now from value to molecule:

BRM Max % Inhibition [1] | IC50 [1] | IC50 [2] | Emax [2] | SMILES
>95% | < 0.1 µM | < 0.1 µM | > 95% | C[C@@H]1CN(c2cccc(-c3csc(NC(=O)CNC(=O)c4ccc5c(c4)[C@](C#N)(CO)CC5)n3)n2)C[C@H](C)O1 [Compound 159, (R)-3-cyano-N-(2-((4-(6-((cis)-2,6-dimethylmorpholino)pyridin-2-yl)thiazol-2-yl)amino)-2-oxoethyl)-3-(hydroxymethyl)-2,3-dihydro-1H-indene-5-carboxamide]
>80% | 0.1 to 1 µM | > 5 µM | < 30% | C[C@@H]1CN(c2cccc(-c3csc(NC(=O)CNC(=O)c4cccc([C@@H]5COC[C@H]5O)c4)n3)n2)C[C@H](C)O1 [Compound 160, N-(2-((4-(6-((cis)-2,6-dimethylmorpholino)pyridin-2-yl)thiazol-2-yl)amino)-2-oxoethyl)-3-((3R,4S)-4-hydroxytetrahydrofuran-3-yl)benzamide]
>95% | < 0.1 µM | 0.1 to 1 µM | > 80% | C[C@@H]1CN(c2cccc(-c3csc(NC(=O)CNC(=O)c4ccc5c(c4)[C@@H](CO)CC5)n3)n2)C[C@H](C)O1 [Compound 161, (3S)-N-[2-[[4-[6-[(cis)-2,6-dimethylmorpholin-4-yl]-2-pyridyl]thiazol-2-yl]amino]-2-oxo-ethyl]-3-(hydroxymethyl)indane-5-carboxamide]
>70% | 0.1 to 1 µM | > 5 µM | > 40% | C[C@@H]1CN(c2cccc(-c3csc(NC(=O)CNC(=O)c4ccc5c(c4)[C@H](CO)CC5)n3)n2)C[C@H](C)O1 [Compound 162, (3R)-N-[2-[[4-[6-[(cis)-2,6-dimethylmorpholin-4-yl]-2-pyridyl]thiazol-2-yl]amino]-2-oxo-ethyl]-3-(hydroxymethyl)indane-5-carboxamide]
>90% | < 0.1 µM | 1 to 5 µM | > 40% | Cc1cncc(-c2cccc(-c3csc(NC(=O)CNC(=O)c4ccc5c(c4)[C@](C)(CO)CC5)n3)n2)n1 [Compound 163, (R)-3-(hydroxymethyl)-3-methyl-N-(2-((4-(6-(6-methylpyrazin-2-yl)pyridin-2-yl)thiazol-2-yl)amino)-2-oxoethyl)-2,3-dihydro-1H-indene-5-carboxamide]
>60% | 0.1 to 1 µM | > 5 µM | < 30% | Cc1cncc(-c2cccc(-c3csc(NC(=O)CNC(=O)c4ccc5c(c4)[C@@](C)(CO)CC5)n3)n2)n1 [Compound 164, (S)-3-(hydroxymethyl)-3-methyl-N-(2-((4-(6-(6-methylpyrazin-2-yl)pyridin-2-yl)thiazol-2-yl)amino)-2-oxoethyl)-2,3-dihydro-1H-indene-5-carboxamide]
>90% | 0.1 to 1 µM | > 5 µM | < 40% | C[C@@H]1CN(c2cccc(-c3csc(NC(=O)CNC(=O)c4ccc5c(c4)[C@](C)(CO)CCO5)n3)c2)C[C@H](C)O1 [Compound 165, (R)-N-(2-((4-(3-((cis)-2,6-dimethylmorpholino)phenyl)thiazol-2-yl)amino)-2-oxoethyl)-4-(hydroxymethyl)-4-methylchroman-6-carboxamide]
>95% | 0.1 to 1 µM | > 5 µM | > 50% | C[C@@H]1CN(c2cccc(-c3csc(NC(=O)CNC(=O)c4ccc5c(c4)[C@@](C)(CO)CCO5)n3)c2)C[C@H](C)O1 [Compound 166, (S)-N-(2-((4-(3-((cis)-2,6-dimethylmorpholino)phenyl)thiazol-2-yl)amino)-2-oxoethyl)-4-(hydroxymethyl)-4-methylchroman-6-carboxamide]
>95% | 0.1 to 1 µM | > 5 µM | > 50% | C[C@@]1(CO)CCc2ccc(C(=O)NCC(=O)Nc3nc(-c4cccc(-c5cnccn5)n4)cs3)cc21 [Compound 167, (R)-3-(hydroxymethyl)-3-methyl-N-(2-oxo-2-((4-(6-(pyrazin-2-yl)pyridin-2-yl)thiazol-2-yl)amino)ethyl)-2,3-dihydro-1H-indene-5-carboxamide]
>95% | < 0.1 µM | < 0.1 µM | > 95% | C[C@@H]1CN(c2cccc(-c3csc(NC(=O)CNC(=O)c4cnc5c(c4)[C@](C)(C#N)CC5)n3)c2)C[C@H](C)O1 [Compound 170, (R)-5-cyano-N-(2-((4-(3-((cis)-2,6-dimethylmorpholino)phenyl)thiazol-2-yl)amino)-2-oxoethyl)-5-methyl-6,7-dihydro-5H-cyclopenta[b]pyridine-3-carboxamide]
>95% | < 0.1 µM | < 0.1 µM | > 95% | C[C@@H]1CN(c2cccc(-c3csc(NC(=O)CNC(=O)c4ccc5c(c4)[C@](C)(C#N)CCO5)n3)c2)C[C@H](C)O1 [Compound 172, (4R)-4-cyano-N-[2-[[4-[3-[(cis)-2,6-dimethylmorpholin-4-yl]phenyl]thiazol-2-yl]amino]-2-oxo-ethyl]-4-methyl-chromane-6-carboxamide]
>95% | < 0.1 µM | 0.1 to 1 µM | > 90% | Cn1ccc2ccc(-c3csc(NC(=O)CNC(=O)c4ccc5c(c4)[C@](C)(CO)CC5)n3)cc2c1=O [Compound 177, (R)-3-(hydroxymethyl)-3-methyl-N-(2-((4-(2-methyl-1-oxo-1,2-dihydroisoquinolin-7-yl)thiazol-2-yl)amino)-2-oxoethyl)-2,3-dihydro-1H-indene-5-carboxamide]
